Consider four compounds from US8410151B2, “Aminomethyl benzene derivatives” (Actelion Pharmaceuticals Ltd, priority 2009, dated 2013).

For assay [1], the target named is recombinant human S1P1 receptor (Homo sapiens, UniProt P21453). The assay is described as follows: GTPγS assay to determine EC50 values. The assay is classed as biochemical. The following applies: 35S-GTPγS binding, membrane preparations of CHO cells expressing recombinant human S1P1 receptor. The method, then: GTPγS binding assays are performed in 96 well microtiter plates (Nunc, 442587) in a final volume of 200 μl, using membrane preparations of CHO cells expressing recombinant human S1P1 receptor. Assay conditions are 20 mM Hepes (Fluka, 54461), 100 mM NaCl (Fluka, 71378), 5 mM MgCl2 (Fluka, 63064), 0.1% BSA (Calbiochem, 126609), 1 μM GDP (Sigma, G-7127), 2.5% DMSO (Fluka, 41644), 50 pM ^355-GTPγS (Amersham Biosciences, SJ1320). The pH is 7.4. Test compounds are dissolved and diluted in 100% DMSO and pre-incubated at room temperature for 30 min in 150 μl of the above assay buffer, in the absence of ^355-GTPγS. After addition of 50 μl of ^355-GTPγS, the assay is incubated for 1 h at rt. The assay is terminated by transfer of the reaction mixture to a Multiscreen plate (Millipore, MAHFC1H60) using a cell harvester from Packard Biosciences, and the plates are washed with ice-cold 10 mM Na2HPO4/NaH2PO4 (70%/30%), dried, sealed at the bottom and, after addition of 25 μl MicroScint20 (Packard Biosciences, order #6013621), sealed on the top. Membrane-bound ^35S-GTPγS is measured with a TopCount from Packard Biosciences.
EC50 is the concentration of agonist inducing 50% of the maximal specific ^35S-GTPγS binding. Specific binding is determined by subtracting non-specific binding from maximal binding. Maximal binding is the amount of cpm bound to the Multiscreen plate in the presence of 10 μM of S1P. Non-specific binding is the amount of binding in the absence of an agonist in the assay.

The subject of the next assay is circulating lymphocytes. The assay is described as follows: Assessment of in vivo efficacy: circulating lymphocytes after oral administration. The conditions noted are these: 3 h after oral administration of 10 mg/kg, male Wistar rats, compared to vehicle-treated group. Also noted: species or system normotensive male Wistar rats. As for the experimental part:
The efficacy of the compounds of formula (I) is assessed by measuring the circulating lymphocytes after oral administration of 3 to 30 mg/kg of a compound of formula (I) to normotensive male Wistar rats. The animals are housed in climate-controlled conditions with a 12 h-light/dark cycle, and have free access to normal rat chow and drinking water.
Blood is collected before and 3, 6 and 24 h after drug administration. Full blood is subjected to hematology using Advia Hematology system (Bayer Diagnostics, Zurich, Switzerland).
All data are presented as mean±SEM. Statistical analyses are performed by analysis of variance (ANOVA) using Statistica (StatSoft) and the Student-Newman-Keuls procedure for multiple comparisons. The null hypothesis is rejected when p<0.05.

Sequence of recombinant human S1P1 receptor (P21453 whole entry): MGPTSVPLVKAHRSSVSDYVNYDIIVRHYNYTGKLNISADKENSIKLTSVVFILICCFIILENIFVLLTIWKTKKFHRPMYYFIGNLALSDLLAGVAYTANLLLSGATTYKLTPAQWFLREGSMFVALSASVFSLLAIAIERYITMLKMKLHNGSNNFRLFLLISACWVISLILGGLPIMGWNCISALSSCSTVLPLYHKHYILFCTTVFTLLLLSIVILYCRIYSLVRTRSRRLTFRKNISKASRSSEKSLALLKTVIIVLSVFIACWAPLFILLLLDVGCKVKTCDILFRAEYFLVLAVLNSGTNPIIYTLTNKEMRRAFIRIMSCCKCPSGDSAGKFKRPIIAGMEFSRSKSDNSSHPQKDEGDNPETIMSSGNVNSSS

Turning to `CCc1cc(-c2noc(-c3cc(C)cc(CN(C)CC)c3)n2)cc(C)c1OC[C@@H](O)CNC(=O)CO` [Example 16, N—{(S)-3-[2-ethyl-4-(5-{3-[(ethyl-methyl-amino)-methyl]-5-methyl-phenyl}-[1,2,4]oxadiazol-3-yl)-6-methyl-phenoxy]-2-hydroxy-propyl}-2-hydroxy-acetamide], in assay [1], the EC50 came out at 2.7 nM. Moreover, in the assay with circulating lymphocytes, the Lymphocyte counts is given as −62.1%.

Regarding `CCCCN(C)Cc1cc(C)cc(-c2nc(-c3cc(C)c(OC[C@@H](O)CNC(=O)CO)c(CC)c3)no2)c1` [Example 18, N—{(S)-3-[4-(5-{3-[(butyl-methyl-amino)-methyl]-5-methyl-phenyl}-[1,2,4]oxadiazol-3-yl)-2-ethyl-6-methyl-phenoxy]-2-hydroxy-propyl}-2-hydroxy-acetamide], the EC50 in assay [1] was 3.3 nM. In addition, in the assay on circulating lymphocytes, the Lymphocyte counts is −63.0%.

`CCc1cc(-c2noc(-c3cc(C)cc(CN4CCCC4)c3)n2)cc(C)c1OC[C@@H](O)CNC(=O)CO` [Example 22, N—((S)-3-{2-ethyl-6-methyl-4-[5-(3-methyl-5-pyrrolidin-1-ylmethyl-phenyl)-[1,2,4]oxadiazol-3-yl]-phenoxy}-2-hydroxy-propyl)-2-hydroxy-acetamide]: the EC50 in assay [1] worked out at 7 nM. Also, in the assay on circulating lymphocytes, the Lymphocyte counts was −61.0%.

For `CCc1cc(-c2nc(-c3cc(C)c(OC[C@@H](O)CNC(=O)CO)c(CC)c3)no2)ccc1CN(C)C` [Example 99, N—((S)-3-{4-[5-(4-dimethylaminomethyl-3-ethyl-phenyl)-[1,2,4]oxadiazol-3-yl]-2-ethyl-6-methyl-phenoxy}-2-hydroxy-propyl)-2-hydroxy-acetamide], the Lymphocyte counts with circulating lymphocytes is −61.0%.
